Literature values, collected in patent publication US20080188553A1, “NOVEL ASCORBIC ACID COMPOUNDS, METHODS OF SYNTHESIS AND APPLICATION USE THEREOF” (priority 2007, published 2008).

Details: relative to ascorbic acid; test conditions not given

SMILES: O=C1O[C@H]([C@@H](O)CO)C(O)=C1OS(=O)(=O)O [L-ascorbate 2-sulphate]
- more stable than ascorbic acid: 20 times
